Laboratory results as given in patent US10696693B2, “Fused imidazole derivatives as TGF-beta inhibitors” (Rigel Pharmaceuticals, Inc., priority 2014, dated 2020).
Read-outs that look alike come from different tables or passages of the source.

Experiments:
GDF8 = assay: AlphaScreen SureFire p-SMAD3 (Ser423/425) assay, GDF8-stimulated cells; assay type: cell-based
In short: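 Lysate (5 μL) went into 384-well shallow plates with 5 μL of Reaction Buffer, Activation Buffer and AlphaScreen Acceptor bead mix. Plates were sealed, kept dark and shaken for 2 hours at room temperature. Donor beads in dilution buffer (2 μL) were added for another 1½ hours, and p-SMAD3 signal was read on a Synergy-4 or Enspire reader.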

TGF-β = assay: AlphaScreen SureFire p-SMAD3 (Ser423/425) assay, TGF-β-stimulated cells; assay type: cell-based
In short: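 The p-SMAD-3 (Ser423/425) SureFire assay measured phosphorylation of endogenous SMAD-3 in cell lysates. Cells were plated overnight in collagen-coated plates, exposed to three-fold serially diluted compounds for about 10 minutes, then stimulated with TGFβ. Lysates (5 μL) received acceptor bead mix for 2 hours, then donor beads for 1½ hours before AlphaScreen reading.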

[1] = Mus musculus, MPC-11, read-out: GDF8: inhibition of GDF8 signaling, GDF pSMAD (MPC11), p-SMAD3 (Ser423/425) AlphaScreen in cell lysate, GDF8 stimulation
[2] = Mus musculus, MPC-11, read-out: TGF-β: inhibition of TGF-β signaling, TGF-β pSMAD (MPC-11), p-SMAD3 (Ser423/425) AlphaScreen in cell lysate, TGF-β stimulation
[3] = Mus musculus, MPC-11, p-SMAD3 (Ser423/425) AlphaScreen in cell lysate, MPC11, GDF8 stimulation, read-out: GDF8: inhibition of GDF8 signaling, GDF pSMAD (MPC11)
[4] = Mus musculus, p-SMAD3 (Ser423/425) AlphaScreen in cell lysate, MPC-11, TGF-β stimulation, read-out: TGF-β: inhibition of TGF-β signaling, TGF-β pSMAD (MPC-11)

Structure (SMILES)	IC50 (GDF8; [3])	IC50 (TGF-β; [4])	also measured
COc1cccc(-c2nc3n(c2-c2ccc4[nH]ncc4c2)CCC3)c1 [Compound 185, 5-(2-(3-methoxyphenyl)-6,7-dihydro-5H-pyrrolo[1,2-a]imidazol-3-yl)-1H-indazole]	–	–	IC50 (GDF8; [1]): 100 to 1000 nM; IC50 (TGF-β; [2]): 100 to 1000 nM
Cc1cc(-c2nc3n(c2-c2ccc4ncsc4c2)CCC3)c(Cl)cc1F [Compound 317, 6-(2-(2-chloro-4-fluoro-5-methylphenyl)-6,7-dihydro-5H-pyrrolo[1,2-a]imidazol-3-yl)benzo[d]thiazole]	–	–	IC50 (GDF8; read-out: GDF8: inhibition of GDF8 signaling, GDF pSMAD (MPC11), p-SMAD3 (Ser423/425) AlphaScreen in cell lysate, GDF8 stimulation): 50 to 100 nM; IC50 (TGF-β; read-out: TGF-β: inhibition of TGF-β signaling, TGF-β pSMAD (MPC-11), p-SMAD3 (Ser423/425) AlphaScreen in cell lysate, TGF-β stimulation): 100 to 1000 nM
Cc1cc(-c2nc3n(c2-c2ccc4nccn4c2)CCC3)cc(C)c1Cl [Compound 25, 6-(2-(4-chloro-3,5-dimethylphenyl)-6,7-dihydro-5H-pyrrolo[1,2-a]imidazol-3-yl)imidazo[1,2-a]pyridine]	> 1000 nM	> 1000 nM	–
COc1ccc(-c2nc3n(c2-c2ccc4nccnc4c2)CCC3)cc1 [Compound 351, 6-(2-(4-methoxyphenyl)-6,7-dihydro-5H-pyrrolo[1,2-a]imidazol-3-yl)quinoxaline]	–	–	IC50 (GDF8; [1]): > 1000 nM; IC50 (TGF-β; [2]): > 1000 nM
Cc1ccc(Cl)cc1-c1nc2n(c1-c1ccc3ncccc3c1)CCC2 [Compound 340, 6-(2-(5-chloro-2-methylpheny)-6,7-dihydro-5H-pyrrolo[1,2-a]imidazol-3-yl)quinoline]	100 to 1000 nM	100 to 1000 nM	–
Fc1cc(-c2nc3n(c2-c2ccc4nnc(C(F)(F)F)n4c2)CCC3)cc(F)c1F [Compound 33, 3-(trifluoromethyl)-6-(2-(3,4,5-trifluorophenyl)-6,7-dihydro-5H-pyrrolo[1,2-c]imidazol-3-yl)-[1,2,4]triazolo[4,3-c]pyridine]	> 1000 nM	> 1000 nM	–
Cc1cc(-c2nc3n(c2-c2ccc4[nH]ncc4c2)CCC3)c(F)cc1F [Compound 268, 5-(2-(2,4-difluoro-5-methylphenyl)-6,7-dihydro-5H-pyrrolo[1,2-a]imidazol-3-yl)-1H-indazole]	< 50 nM	50 to 100 nM	–
Cc1c(F)ccc(-c2nc3n(c2-c2ccc4ncnn4c2)CCC3)c1F [Compound 45, 6-(2-(2,4-difluoro-3-methylphenyl)-6,7-dihydro-5H-pyrrolo[1,2-a]imidazol-3-yl)-[1,2,4]triazolo[1,5-a]pyridine]	100 to 1000 nM	100 to 1000 nM	–
Fc1cc(-c2nc3n(c2-c2ccc4ncccc4c2)CCC3)cc(F)c1F [Compound 247, 6-(2-(3,4,5-trifluorophenyl)-6,7-dihydro-5H-pyrrolo[1,2-a]imidazol-3-yl)quinoline]	100 to 1000 nM	> 1000 nM	–
Cc1c(-c2nc3n(c2-c2ccc4ncnn4c2)CCC3)ccc(F)c1F [Compound 44, 6-(2-(3,4-difluoro-2-methylphenyl)-6,7-dihydro-5H-pyrrolo[1,2-a]imidazol-3-yl)-[1,2,4]triazolo[1,5-a]pyridine]	100 to 1000 nM	> 1000 nM	–
Fc1ccc(-c2nc3n(c2-c2ccc4[nH]ncc4c2)CCC3)c(F)c1 [Compound 201, 5-(2-(2,4-difluorophenyl)-6,7-dihydro-5H-pyrrolo[1,2-a]imidazol-3-yl)-1H-indazole]	< 50 nM	100 to 1000 nM	–
Fc1cc(F)c(F)c(-c2nc3n(c2-c2ccc4ncccc4c2)CCN3)c1 [Compound 110, 6-(6-(2,3,5-trifluorophenyl)-2,3-dihydro-1H-imidazo[1,2-a]imidazol-5-yl)quinoline]	< 50 nM	< 50 nM	–
Cc1ccc(F)c(-c2nc3n(c2-c2ccc4nccnc4c2)CCC3)c1 [Compound 357, 6-(2-(2-fluoro-5-methylphenyl)-6,7-dihydro-5H-pyrrolo[1,2-a]imidazol-3-yl)quinoxaline]	< 50 nM	< 50 nM	–
Fc1cc(-c2nc3n(c2-c2ccc4nccn4c2)CCC3)cc(F)c1F [Compound 13]	100 to 1000 nM	> 1000 nM	–
Fc1cc(F)c(-c2nc3n(c2-c2ccc4ncsc4c2)CCC3)cc1F [Compound 218, 6-(2-(2,4,5-trifluorophenyl)-6,7-dihydro-5H-pyrrolo[1,2-a]imidazol-3-yl)benzo[d]thiazole]	< 50 nM	50 to 100 nM	–
Cc1ccc(-c2ccc3nccnc3c2)cc1-c1nc2n(c1-c1ccc3nccnc3c1)CCC2 [Compound 341, 6-(4-methyl-3-(3-(quinoxalin-6-yl)-6,7-dihydro-5H-pyrrolo[1,2-a]imidazol-2-yl)phenyl)quinoxaline]	–	–	IC50 (GDF8; [1]): > 1000 nM; IC50 (TGF-β; [2]): > 1000 nM

Structure (SMILES)	IC50 (GDF8; [3])	IC50 (TGF-β; [4])	also measured
Cc1c(F)ccc(-c2nc3n(c2-c2ccc4ncccc4c2)CCC3)c1C [Compound 331, 6-(2-(4-fluoro-2,3-dimethylphenyl)-6,7-dihydro-5H-pyrrolo[1,2-a]imidazol-3-yl)quinoline]	–	–	IC50 (GDF8; [1]): > 1000 nM; IC50 (TGF-β; [2]): > 1000 nM
Cc1c(F)ccc(-c2nc3n(c2-c2ccc4[nH]ncc4c2)CCC3)c1C [Compound 328, 5-(2-(4-fluoro-2,3-dimethylphenyl)-6,7-dihydro-5H-pyrrolo[1,2-a]imidazol-3-yl)-1H-indazole]	–	–	IC50 (GDF8; [1]): 100 to 1000 nM; IC50 (TGF-β; [2]): > 1000 nM
Cc1c(F)ccc(-c2nc3n(c2-c2ccc4ncccc4c2)CCC3)c1Cl [Compound 315, 6-(2-(2-chloro-4-fluoro-3-methylphenyl)-6,7-dihydro-5H-pyrrolo[1,2-a]imidazol-3-yl)quinoline]	–	–	IC50 (GDF8; [1]): > 1000 nM; IC50 (TGF-β; [2]): > 1000 nM
Cc1ccc(-c2nc3n(c2-c2ccc4nccnc4c2)CCC3)c(F)c1F [Compound 250, 6-(2-(2,3-difluoro-4-methylphenyl)-6,7-dihydro-5H-pyrrolo[1,2-a]imidazol-3-yl)quinoxaline]	> 1000 nM	> 1000 nM	–
Fc1ccc(-c2nc3occn3c2-c2ccc3nccn3c2)c(F)c1F [Compound 163, 5-(imidazo[1,2-a]pyridin-6-yl)-6-(2,3,4-trifluorophenyl)imidazo[2,1-b]oxazole]	50 to 100 nM	100 to 1000 nM	–
Cc1ccccc1-c1nc2n(c1-c1ccc3[nH]ncc3c1)CCC2 [Compound 304, 5-(2-(o-tolyl)-6,7-dihydro-5H-pyrrolo[1,2-a]imidazol-3-yl)-1H-indazole]	> 1000 nM	> 1000 nM	–
Cc1c(-c2nc3n(c2-c2ccc4ncsc4c2)CCC3)ccc(F)c1F [Compound 261, 6-(2-(3,4-difluoro-2-methylphenyl)-6,7-dihydro-5H-pyrrolo[1,2-a]imidazol-3-yl)benzo[d]thiazole]	100 to 1000 nM	> 1000 nM	–
CC(=O)N1CCn2c1nc(-c1cc(F)c(F)cc1F)c2-c1ccc2ncnn2c1 [Compound 104, 1-(5-([1,2,4]triazolo[1,5-a]pyridin-6-yl)-6-(2,4,5-trifluorophenyl)-2,3-dihydro-1H-imidazo[1,2-a]imidazol-1-yl)ethan-1-one]	> 1000 nM	> 1000 nM	–
Cc1cc(F)c(Cl)cc1-c1nc2n(c1-c1ccc3ncnn3c1)CCC2 [Compound 56, 6-(2-(5-chloro-4-fluoro-2-methylphenyl)-6,7-dihydro-5H-pyrrolo[1,2-a]imidazol-3-yl)-[1,2,4]triazolo[1,5-a]pyridine]	100 to 1000 nM	100 to 1000 nM	–
O=C(OCc1ccccc1)N1CCC2Cn3c(nc(-c4ccc(F)cc4)c3-c3ccc4ncnn4c3)C2C1 (stereo not shown) [Compound 88, benzyl 3-([1,2,4]triazolo[1,5-a]pyridin-6-yl)-2-(4-fluorophenyl)-5,5a,6,7,9,9a-hexahydro-8H-imidazo[1′,2′:1,2]pyrrolo[3,4-c]pyridine-8-carboxylate]	> 1000 nM	> 1000 nM	–
Fc1ccccc1-c1nc2n(c1-c1ccc3ncccc3c1)CCC2 [Compound 210, 6-(2-(2-fluorophenyl)-6,7-dihydro-5H-pyrrolo[1,2-a]imidazol-3-yl)quinoline]	100 to 1000 nM	> 1000 nM	–
Fc1cc(F)cc(-c2nc3n(c2-c2ccc4nccnc4c2)CCC3)c1 [Compound 233, 6-(2-(3,5-difluorophenyl)-6,7-dihydro-5H-pyrrolo[1,2-a]imidazol-3-yl)quinoxaline]	–	–	IC50 (GDF8; [1]): > 1000 nM; IC50 (TGF-β; [2]): > 1000 nM
Fc1cc(F)c(F)c(-c2nc3n(c2-c2ccc4ncnn4c2)CCC3)c1 [Compound 17, 6-(2-(2,3,5-trifluorophenyl)-6,7-dihydro-5H-pyrrolo[1,2-a]imidazol-3-yl)-[1,2,4]triazolo[1,5-a]pyridine]	100 to 1000 nM	> 1000 nM	–
Fc1cc(F)cc(-c2nc3n(c2-c2ccc4ncccc4c2)CCC3)c1 [Compound 234, 6-(2-(3,5-difluorophenyl)-6,7-dihydro-5H-pyrrolo[1,2-a]imidazol-3-yl)quinoline]	–	–	IC50 (GDF8; [1]): > 1000 nM; IC50 (TGF-β; [2]): > 1000 nM
Cc1cc(-c2nc3n(c2-c2ccc4[nH]ncc4c2)CCC3)cc(Cl)c1F [Compound 272, 5-(2-(3-chloro-4-fluoro-5-methylphenyl)-6,7-dihydro-5H-pyrrolo[1,2-a]imidazol-3-yl)-1H-indazole]	> 1000 nM	> 1000 nM	–
Clc1ccc(Cl)c(-c2nc3n(c2-c2ccc4nccnc4c2)CCC3)c1 [Compound 348, 6-(2-(2,5-dichloropheny)-6,7-dihydro-5H-pyrrolo[1,2-a]imidazol-3-yl)quinoxaline]	< 50 nM	50 to 100 nM	–
